{
  "source": "patent US10913727B2",
  "about": "“Modulators of the integrated stress pathway” (Calico Life Sciences LLC, priority 2016, dated 2021)",
  "data": [
    {"test_system": "HEK293T cells carrying the ATF4 luciferase reporter", "assay": "ATF4-Luc assay, in vitro model of Vanishing Cell White Matter Disease (VWMD)", "type": "cell-based", "conditions": "Homo sapiens, HEK-293T, 1 μg/mL tunicamycin, 7 hours, One Glo luminescence", "outline": "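Reporter cells were stably generated by retroviral transduction and puromycin selection, then seeded at 30,000 cells/well. Next day, cells received 1 μg/mL tunicamycin with 200 nM test compound for 7 h, and luciferase luminescence was read with a one-step reagent. Values reported as EC50.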", "units": {"EC50": "µM"}, "values": [
      {"smiles": "Cc1ccoc1C(=O)NC12CC(NC(=O)COc3ccc(Cl)c(F)c3)(C1)C2", "note": "[Compound 545, N-{3-[2-(4-chloro-3-fluorophenoxy)acetamido]bicyclo[1.1.1]pentan-1-yl}-3-methylfuran-2-carboxamide]", "EC50": "0.25 to 1"},
      {"smiles": "O=C(COc1ccc(Cl)c(F)c1)NC12CC(NC(=O)c3ccc(OC(F)(F)F)cc3)(C1)C2", "note": "[Compound 321, N-{3-[2-(4-chloro-3-fluorophenoxy)acetamido]bicyclo[1.1.1]pentan-1-yl}-4-(trifluoromethoxy)benzamide]", "EC50": "0.05 to 0.25"},
      {"smiles": "CCc1cc(C(=O)NC23CC(NC(=O)COc4ccc(Cl)c(F)c4)(C2)C3)on1", "note": "[Compound 323, N-{3-[2-(4-chloro-3-fluorophenoxy)acetamido]bicyclo[1.1.1]pentan-1-yl}-3-ethyl-1,2-oxazole-5-carboxamide]", "EC50": "0.25 to 1"},
      {"smiles": "CC(=O)Nc1cncc(C(=O)NC23CC(NC(=O)COc4ccc(Cl)c(F)c4)(C2)C3)c1", "note": "[Compound 822, 5-acetamido-N-{3-[2-(4-chloro-3-fluorophenoxy)acetamido]bicyclo[1.1.1]pentan-1-yl}pyridine-3-carboxamide]", "EC50": "> 2"},
      {"smiles": "COCCOc1ccc(C(=O)NC23CC(NC(=O)COc4ccc(Cl)c(F)c4)(C2)C3)nc1", "note": "[Compound 299, N-{3-[2-(4-chloro-3-fluorophenoxy)acetamido]bicyclo[1.1.1]pentan-1-yl}-5-(2-methoxyethoxy)pyridine-2-carboxamide]", "EC50": "0.25 to 1"},
      {"smiles": "Cc1cc2c(NC34CC(NC(=O)COc5ccc(F)cc5)(C3)C4)nccn2n1", "note": "[Compound 639, 2-(4-fluorophenoxy)-N-{3-[(2-methylpyrazolo[1,5-a]pyrazin-4-yl)amino]bicyclo[1.1.1]pentan-1-yl}acetamide]", "EC50": "0.05 to 0.25"},
      {"smiles": "CCc1ncc(C(=O)NC23CC(NC(=O)COc4ccc(Cl)c(F)c4)(C2)C3)o1", "note": "[Compound 290, N-{3-[2-(4-chloro-3-fluorophenoxy)acetamido]bicyclo[1.1.1]pentan-1-yl}-2-ethyl-1,3-oxazole-5-carboxamide]", "EC50": "0.05 to 0.25"},
      {"smiles": "O=C(COc1ccc(Cl)c(F)c1)NC12CC(Nc3cncc(C(F)(F)F)n3)(C1)C2", "note": "[Compound 747, 2-(4-chloro-3-fluorophenoxy)-N-(3-{[6-(trifluoromethyl)pyrazin-2-yl]amino}bicyclo[1.1.1]pentan-1-yl)acetamide]", "EC50": "> 2"},
      {"smiles": "CC(=O)NCc1ccc(C(=O)NC23CC(NC(=O)COc4ccc(Cl)c(F)c4)(C2)C3)o1", "note": "[Compound 778, 5-(acetamidomethyl)-N-{3-[2-(4-chloro-3-fluorophenoxy)acetamido]bicyclo[1.1.1]pentan-1-yl}furan-2-carboxamide]", "EC50": "> 2"},
      {"smiles": "O=C(COc1ccc(Cl)c(F)c1)NC12CC(NC(=O)c3cc(CNC(=O)C4CC4)ccn3)(C1)C2", "note": "[Compound 391, N-{3-[2-(4-chloro-3-fluorophenoxy)acetamido]bicyclo[1.1.1]pentan-1-yl}-4-{[(cyclopropanecarbonyl)amino]methyl}pyridine-2-carboxamide]", "EC50": "0.25 to 1"},
      {"smiles": "O=C(COc1ccc(Cl)c(F)c1)NC12CC(NC(=O)c3cnc4cccnn34)(C1)C2", "note": "[Compound 760, N-{3-[2-(4-chloro-3-fluorophenoxy)acetamido]bicyclo[1.1.1]pentan-1-yl}imidazo[1,2-b]pyridazine-3-carboxamide]", "EC50": "> 2"},
      {"smiles": "O=C(COc1ccc(Cl)c(F)c1)NC12CC(NC(=O)c3cnc(C(F)F)s3)(C1)C2", "note": "[Compound 443, N-{3-[2-(4-chloro-3-fluorophenoxy)acetamido]bicyclo[1.1.1]pentan-1-yl}-2-(difluoromethyl)-1,3-thiazole-5-carboxamide]", "EC50": "< 0.05"},
      {"smiles": "Cc1cc2c(NC34CC(NC(=O)COc5cc(F)c(F)c(F)c5)(C3)C4)nccn2n1", "note": "[Compound 495, N-{3-[(2-methylpyrazolo[1,5-a]pyrazin-4-yl)amino]bicyclo[1.1.1]pentan-1-yl}-2-(3,4,5-trifluorophenoxy)acetamide]", "EC50": "0.25 to 1"},
      {"smiles": "O=C(COc1ccc(Cl)c(F)c1)NC12CCC(NC(=O)c3ccc(OC(F)F)cn3)(C1)C2", "note": "[Compound 337, N-{4-[2-(4-chloro-3-fluorophenoxy)acetamido]bicyclo[2.1.1]hexan-1-yl}-5-(difluoromethoxy)pyridine-2-carboxamide]", "EC50": "0.25 to 1"},
      {"smiles": "Cn1c(C(=O)NC23CC(NC(=O)COc4ccc(Cl)c(F)c4)(C2)C3)cc2sccc21", "note": "[Compound 841, N-{3-[2-(4-chloro-3-fluorophenoxy)acetamido]bicyclo[1.1.1]pentan-1-yl}-4-methyl-4H-thieno[3,2-b]pyrrole-5-carboxamide]", "EC50": "0.25 to 1"},
      {"smiles": "O=C(COc1ccc(Cl)c(F)c1)NC12CCC(NC(=O)c3cscn3)(CC1)C(O)C2", "note": "(stereo not shown) [Compound 212, N-{4-[2-(4-chloro-3-fluorophenoxy)acetamido]-2-hydroxybicyclo[2.2.2]octan-1-yl}-1,3-thiazole-4-carboxamide]", "EC50": "0.25 to 1"},
      {"smiles": "O=C(COc1ccc(Cl)c(Cl)c1)NC12CC(NC(=O)c3cc(CCO)ccn3)(C1)C2", "note": "[Compound 281, N-{3-[2-(3,4-dichlorophenoxy)acetamido]bicyclo[1.1.1]pentan-1-yl}-4-(2-hydroxyethyl)pyridine-2-carboxamide]", "EC50": "0.05 to 0.25"},
      {"smiles": "O=C(COc1ccc(Cl)c(F)c1)NC12CC(NC(=O)c3cnc(C4CC4)o3)(C1)C2", "note": "[Compound 583, N-{3-[2-(4-chloro-3-fluorophenoxy)acetamido]bicyclo[1.1.1]pentan-1-yl}-2-cyclopropyl-1,3-oxazole-5-carboxamide]", "EC50": "0.05 to 0.25"},
      {"smiles": "O=C(COc1ccc(Cl)c(F)c1)NC12CCC(NC(=O)c3ccc(-c4ccc(F)cc4)cn3)(CC1)CC2O", "note": "(stereo not shown) [Compound 939, N-{4-[2-(4-chloro-3-fluorophenoxy)acetamido]-3-hydroxybicyclo[2.2.2]octan-1-yl}-5-(4-fluorophenyl)pyridine-2-carboxamide]", "EC50": "> 2"},
      {"smiles": "Cc1cnccc1C(=O)NC12CC(NC(=O)COc3ccc(Cl)c(F)c3)(C1)C2", "note": "[Compound 814, N-{3-[2-(4-chloro-3-fluorophenoxy)acetamido]bicyclo[1.1.1]pentan-1-yl}-3-methylpyridine-4-carboxamide]", "EC50": "> 2"},
      {"smiles": "Cc1cnc(C(=O)NC23CCC(NC(=O)COc4ccc(Cl)c(F)c4)(CC2)CC3O)cn1", "note": "(stereo not shown) [Compound 220, N-{4-[2-(4-chloro-3-fluorophenoxy)acetamido]-2-hydroxybicyclo[2.2.2]octan-1-yl}-5-methylpyrazine-2-carboxamide]", "EC50": "0.05 to 0.25"},
      {"smiles": "CC(C)c1cc(C(=O)NC23CC(NC(=O)COc4ccc(Cl)c(F)c4)(C2)C3)on1", "note": "[Compound 350, N-{3-[2-(4-chloro-3-fluorophenoxy)acetamido]bicyclo[1.1.1]pentan-1-yl}-3-(propan-2-yl)-1,2-oxazole-5-carboxamide]", "EC50": "0.25 to 1"},
      {"smiles": "CC(C)(O)CCc1ccnc(C(=O)NC23CC(NC(=O)COc4ccc(Cl)c(F)c4)(C2)C3)c1", "note": "[Compound 432, N-{3-[2-(4-chloro-3-fluorophenoxy)acetamido]bicyclo[1.1.1]pentan-1-yl}-4-(3-hydroxy-3-methylbutyl)pyridine-2-carboxamide]", "EC50": "> 2"},
      {"smiles": "CCc1noc(C)c1C(=O)NC12CC(NC(=O)COc3ccc(Cl)c(F)c3)(C1)C2", "note": "[Compound 824, N-{3-[2-(4-chloro-3-fluorophenoxy)acetamido]bicyclo[1.1.1]pentan-1-yl}-3-ethyl-5-methyl-1,2-oxazole-4-carboxamide]", "EC50": "> 2"},
      {"smiles": "CN(C)c1cccc(C(=O)NC23CC(NC(=O)COc4ccc(Cl)c(F)c4)(C2)C3)c1", "note": "[Compound 534, N-{3-[2-(4-chloro-3-fluorophenoxy)acetamido]bicyclo[1.1.1]pentan-1-yl}-3-(dimethylamino)benzamide]", "EC50": "0.25 to 1"},
      {"smiles": "O=C(COc1ccc(Cl)c(F)c1)NC12CC(NC(=O)c3cccc(C(F)(F)F)n3)(C1)C2", "note": "[Compound 781, N-{3-[2-(4-chloro-3-fluorophenoxy)acetamido]bicyclo[1.1.1]pentan-1-yl}-6-(trifluoromethyl)pyridine-2-carboxamide]", "EC50": "> 2"},
      {"smiles": "O=C(COc1ccc(Cl)c(F)c1)NC12CC(NC(=O)c3cncs3)(C1)C2", "note": "[Compound 309, N-{3-[2-(4-chloro-3-fluorophenoxy)acetamido]bicyclo[1.1.1]pentan-1-yl}-1,3-thiazole-5-carboxamide]", "EC50": "0.25 to 1"},
      {"smiles": "CCc1cc(C(=O)NC23CCC(NC(=O)COc4ccc(Cl)c(F)c4)(CC2)C(O)C3)no1", "note": "(stereo not shown) [Compound 606, N-{4-[2-(4-chloro-3-fluorophenoxy)acetamido]-3-hydroxybicyclo[2.2.2]octan-1-yl}-5-ethyl-1,2-oxazole-3-carboxamide]", "EC50": "0.05 to 0.25"},
      {"smiles": "O=C(COc1ccc(Cl)c(F)c1)NC12CC(NC(=O)c3ncccn3)(C1)C2", "note": "[Compound 793, N-{3-[2-(4-chloro-3-fluorophenoxy)acetamido]bicyclo[1.1.1]pentan-1-yl}pyrimidine-2-carboxamide]", "EC50": "0.25 to 1"},
      {"smiles": "CC(=O)Nc1ccc(C(=O)NC23CC(NC(=O)COc4ccc(Cl)c(F)c4)(C2)C3)cc1", "note": "[Compound 816, 4-acetamido-N-{3-[2-(4-chloro-3-fluorophenoxy)acetamido]bicyclo[1.1.1]pentan-1-yl}benzamide]", "EC50": "> 2"},
      {"smiles": "O=C(COc1ccc(Cl)c(F)c1)NC12CC(NC(=O)c3cncnc3)(C1)C2", "note": "[Compound 188, N-{3-[2-(4-chloro-3-fluorophenoxy)acetamido]bicyclo[1.1.1]pentan-1-yl}pyrimidine-5-carboxamide]", "EC50": "0.25 to 1"},
      {"smiles": "O=C(COc1ccc(Cl)c(F)c1)NC12CCC(NC(=O)c3onc4ccccc34)(CC1)C(O)C2", "note": "(stereo not shown) [Compound 332, N-{4-[2-(4-chloro-3-fluorophenoxy)acetamido]-2-hydroxybicyclo[2.2.2]octan-1-yl}-2,1-benzoxazole-3-carboxamide]", "EC50": "> 2"},
      {"smiles": "Cc1cc(C(=O)NC23CC(NC(=O)COc4ccc(Cl)c(F)c4)(C2)C3)c(C)o1", "note": "[Compound 537, N-{3-[2-(4-chloro-3-fluorophenoxy)acetamido]bicyclo[1.1.1]pentan-1-yl}-2,5-dimethylfuran-3-carboxamide]", "EC50": "0.25 to 1"},
      {"smiles": "CCc1cc(C(=O)NC23CC(NC(=O)COc4ccc(Cl)c(F)c4)(C2)C3)[nH]n1", "note": "[Compound 275, N-{3-[2-(4-chloro-3-fluorophenoxy)acetamido]bicyclo[1.1.1]pentan-1-yl}-3-ethyl-1H-pyrazole-5-carboxamide]", "EC50": "0.05 to 0.25"}
    ]}
  ]
}
